# Measured values: patent US20260325533A1, “CDK INHIBITOR COMPOUNDS” (ALEKSIA THERAPEUTICS, INC., priority 2023, published 2026)
# Read-outs that look alike come from different tables or passages of the source.
# Key:
# Format in all cases: biochemical
# CDK2/CCNE1 = CDK2/CCNE1 (Homo sapiens, UniProt P24941); assay: CDK2 homogeneous time-resolved fluorescence (HTRF) kinase assay; conditions: CDK2/CCNE
# How it was run: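 3 nM CDK2/CCNE1 was preincubated with compound for 20 min at 23 °C in HEPES buffer (pH not stated), then reacted 60 min with 1 mM ATP and 50 nM ULight-4E-BP1 (Thr37/46) peptide. After EDTA stop, Eu-anti-phospho-4E-BP1 antibody (2 nM) was added for 60 min and TR-FRET read at 665 nm.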
# CDK1/CCNB1 = CDK1/CCNB1 (Homo sapiens, UniProt P06493); assay: CDK1 homogeneous time-resolved fluorescence (HTRF) kinase assay; conditions: CDK1/CCNB
# CDK1/CCNB1, sequence (P06493 whole entry): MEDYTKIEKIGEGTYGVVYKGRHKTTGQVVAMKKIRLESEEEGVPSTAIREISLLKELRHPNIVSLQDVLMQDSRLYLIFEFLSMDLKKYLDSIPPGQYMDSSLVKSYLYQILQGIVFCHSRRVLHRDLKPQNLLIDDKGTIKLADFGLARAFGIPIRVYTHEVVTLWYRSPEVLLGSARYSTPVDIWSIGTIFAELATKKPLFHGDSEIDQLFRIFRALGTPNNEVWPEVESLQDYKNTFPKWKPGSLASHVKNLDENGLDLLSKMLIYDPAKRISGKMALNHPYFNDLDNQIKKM
# CDK1/CCNB1, sequence (P14635 whole entry partner): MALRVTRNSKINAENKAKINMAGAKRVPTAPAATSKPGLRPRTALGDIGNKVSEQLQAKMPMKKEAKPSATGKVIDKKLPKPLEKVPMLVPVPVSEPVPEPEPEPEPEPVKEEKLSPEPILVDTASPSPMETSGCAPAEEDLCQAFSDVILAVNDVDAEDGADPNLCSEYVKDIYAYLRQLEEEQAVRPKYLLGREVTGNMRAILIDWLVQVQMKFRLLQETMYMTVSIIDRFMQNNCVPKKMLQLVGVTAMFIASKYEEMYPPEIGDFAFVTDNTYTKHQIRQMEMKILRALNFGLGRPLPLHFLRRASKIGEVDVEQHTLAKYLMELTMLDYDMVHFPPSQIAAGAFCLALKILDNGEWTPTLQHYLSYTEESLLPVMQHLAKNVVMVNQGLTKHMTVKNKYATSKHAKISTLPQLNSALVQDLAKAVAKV
# How it was run: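 Compounds, titrated 11 points in half-log steps typically from 10 μM, were incubated with enzyme for 20 min before ATP (1 mM) and ULight-labelled eIF4E-binding protein 1 peptide (50 nM) started a 60-min reaction at 23 °C. Phosphopeptide was detected by europium-antibody TR-FRET and IC50 values were derived.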
# CDK4/CCND3 = CDK4/CCND3 (Homo sapiens, UniProt P11802); assay: CDK4 homogeneous time-resolved fluorescence (HTRF) kinase assay; conditions: CDK4/CCND
# CDK4/CCND3, sequence (P11802 whole entry): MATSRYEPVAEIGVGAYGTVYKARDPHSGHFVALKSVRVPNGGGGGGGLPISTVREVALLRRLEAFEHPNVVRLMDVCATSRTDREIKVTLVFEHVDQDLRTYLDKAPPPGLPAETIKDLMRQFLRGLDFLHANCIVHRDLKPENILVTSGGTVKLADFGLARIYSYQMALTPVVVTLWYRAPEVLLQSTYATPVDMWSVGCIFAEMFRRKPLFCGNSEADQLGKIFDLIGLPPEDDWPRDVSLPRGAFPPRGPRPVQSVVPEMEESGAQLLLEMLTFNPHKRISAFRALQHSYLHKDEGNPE
# CDK4/CCND3, sequence (P30281 whole entry partner): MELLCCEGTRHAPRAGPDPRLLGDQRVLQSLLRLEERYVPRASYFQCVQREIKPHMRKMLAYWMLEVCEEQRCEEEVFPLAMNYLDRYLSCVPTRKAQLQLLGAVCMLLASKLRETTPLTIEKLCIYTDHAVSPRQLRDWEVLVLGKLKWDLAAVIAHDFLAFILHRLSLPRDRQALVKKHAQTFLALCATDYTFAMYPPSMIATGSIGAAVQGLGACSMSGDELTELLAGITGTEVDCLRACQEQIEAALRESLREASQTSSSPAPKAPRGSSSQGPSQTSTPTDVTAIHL
# How it was run: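 Compounds were preincubated with 1.5 nM CDK4/CCND3 for 20 min at 23 °C in HEPES buffer (pH not given), then reacted 60 min with 1 mM ATP and 50 nM ULight-4E-BP1 (Thr37/46) peptide. EDTA stop, Eu-anti-phospho-4E-BP1 detection; 665/615 nm ratio; IC50 from 11-point half-log titrations from 10 μM.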
# CDK6/CCND1 = CDK6/CCND1 (Homo sapiens, UniProt Q00534); assay: CDK6 homogeneous time-resolved fluorescence (HTRF) kinase assay; conditions: CDK6/CCND, 1 mM ATP
# CDK6/CCND1, sequence (Q00534 whole entry): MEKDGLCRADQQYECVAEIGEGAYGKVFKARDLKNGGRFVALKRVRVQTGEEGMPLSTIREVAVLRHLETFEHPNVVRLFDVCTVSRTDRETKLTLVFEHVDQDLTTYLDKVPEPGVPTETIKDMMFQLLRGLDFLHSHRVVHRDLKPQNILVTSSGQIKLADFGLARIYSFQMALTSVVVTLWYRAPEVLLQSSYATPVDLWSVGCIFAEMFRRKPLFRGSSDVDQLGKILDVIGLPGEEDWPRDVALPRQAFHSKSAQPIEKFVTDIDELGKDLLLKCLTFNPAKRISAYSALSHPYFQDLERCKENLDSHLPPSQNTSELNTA
# CDK6/CCND1, sequence (P24385 whole entry partner): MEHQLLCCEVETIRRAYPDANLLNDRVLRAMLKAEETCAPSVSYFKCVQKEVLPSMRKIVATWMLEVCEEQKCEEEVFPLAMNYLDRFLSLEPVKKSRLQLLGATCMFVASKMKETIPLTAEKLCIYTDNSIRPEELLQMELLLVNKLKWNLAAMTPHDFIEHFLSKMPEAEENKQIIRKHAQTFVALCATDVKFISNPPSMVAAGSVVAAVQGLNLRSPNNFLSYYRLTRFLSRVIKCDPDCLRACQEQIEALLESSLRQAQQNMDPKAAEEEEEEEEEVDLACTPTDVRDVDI
# How it was run: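 1 nM enzyme, 1 mM ATP, 50 nM ULight-4E-BP1 (Thr37/46) peptide, 1% DMSO; 20 min compound preincubation, 60 min reaction, 23 °C. EDTA stop, 2 nM Eu-anti-phospho-4E-BP1 antibody 60 min. TR-FRET 665 nm (or 665/615 ratio); IC50 from 11-point half-log titration, top 10 μM.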
# [1] = <25 nM, read-out: CDK2/CCNE IC50, <25 nM
# [2] = >250 nM, read-out: CDK1/CCNB IC50 >250 nM
# [3] = 25-250 nM, read-out: CDK4/CCND IC50, 25-250 nM
# [4] = 25-250 nM, read-out: CDK6/CCND IC50, 25-250 nM
# [5] = >250 nM, read-out: CDK4/CCND IC50, >250 nM
# [6] = >250 nM, read-out: CDK6/CCND IC50, >250 nM
# [7] = 25-250 nM, read-out: CDK2/CCNE IC50, 25-250 nM
Structure (SMILES),IC50 (CDK2/CCNE1; [1]),IC50 (CDK1/CCNB1; [2]),IC50 (CDK4/CCND3; [3]),IC50 (CDK6/CCND1; [4]),"IC50 (CDK1/CCNB1; 25-250 nM, read-out: CDK1/CCNB IC50, 25-250 nM)",IC50 (CDK4/CCND3; [5]),IC50 (CDK6/CCND1; [6]),"IC50 (CDK2/CCNE1; >250 nM, read-out: CDK2/CCNE IC50, >250 nM)",IC50 (CDK2/CCNE1; [7])
"Cc1c(-c2nccc3cnc(Nc4ccc(S(=O)(=O)N(c5ncccn5)C5CC5)cc4)cc23)ccc2c1cnn2CC(O)(C(F)(F)F)C(F)(F)F [Example 698, N-cyclopropyl-4-((5-(4-methyl-1-(3,3,3-trifluoro-2-hydroxy-2-(trifluoromethyl)propyl)-1H-indazol-5-yl)-2,6-naphthyridin-3-yl)amino)-N-(pyrimidin-2-yl)benzenesulfonamide]",–,> 250 nM,–,–,–,> 250 nM,> 250 nM,> 250 nM,–
"COc1cnc(NS(=O)(=O)c2ccc(Nc3cc4c(-c5ccc6c(cnn6CC(O)(C(F)(F)F)C(F)(F)F)c5C)nccc4cn3)cc2)cc1N1CCOCC1 [Example 700, N-(5-methoxy-4-morpholinopyridin-2-yl)-4-((5-(4-methyl-1-(3,3,3-trifluoro-2-hydroxy-2-(trifluoromethyl)propyl)-1H-indazol-5-yl)-2,6-naphthyridin-3-yl)amino)benzenesulfonamide]",< 25 nM,> 250 nM,–,–,–,> 250 nM,> 250 nM,–,–
"Cc1c(-c2nccc3cnc(Nc4ccc(NS(=O)(=O)c5ncccn5)cc4)cc23)ccc2c1cnn2CC(C)(C)O [Example 705, N-(4-((5-(1-(2-hydroxy-2-methylpropyl)-4-methyl-1H-indazol-5-yl)-2,6-naphthyridin-3-yl)amino)phenyl)pyrimidine-2-sulfonamide]",< 25 nM,> 250 nM,25 to 250 nM,25 to 250 nM,–,–,–,–,–
"Cc1ccc(NS(=O)(=O)c2ccc(Nc3cc4c(-c5ccc6c(cnn6CC(O)(C(F)(F)F)C(F)(F)F)c5C)nccc4cn3)cc2)cc1C(C)(C)O [Example 708, N-(3-(2-hydroxypropan-2-yl)-4-methylphenyl)-4-((5-(4-methyl-1-(3,3,3-trifluoro-2-hydroxy-2-(trifluoromethyl)propyl)-1H-indazol-5-yl)-2,6-naphthyridin-3-yl)amino)benzenesulfonamide]",–,> 250 nM,–,–,–,> 250 nM,> 250 nM,–,25 to 250 nM
"Cc1c(-c2nccc3cnc(Nc4ccc(S(=O)(=O)Nc5ccccn5)cc4)cc23)ccc2c1cnn2CC(O)(C(F)(F)F)C(F)(F)F [Example 716, 4-((5-(4-methyl-1-(3,3,3-trifluoro-2-hydroxy-2-(trifluoromethyl)propyl)-1H-indazol-5-yl)-2,6-naphthyridin-3-yl)amino)-N-(pyridin-2-yl)benzenesulfonamide]",< 25 nM,> 250 nM,–,–,–,> 250 nM,> 250 nM,–,–
"Cc1c(-c2nccc3cnc(Nc4ccc(S(=O)(=O)N(C)c5ncccn5)cc4)cc23)ccc2c1cnn2CC(O)(C(F)(F)F)C(F)(F)F [Example 732, N-methyl-4-((5-(4-methyl-1-(3,3,3-trifluoro-2-hydroxy-2-(trifluoromethyl)propyl)-1H-indazol-5-yl)-2,6-naphthyridin-3-yl)amino)-N-(pyrimidin-2-yl)benzenesulfonamide]",–,> 250 nM,–,–,–,> 250 nM,> 250 nM,–,25 to 250 nM
"CCN(c1ncccn1)S(=O)(=O)c1ccc(Nc2cc3c(-c4ccc5c(cnn5CC(C)(C)O)c4C)nccc3cn2)cc1 [Example 733, N-ethyl-4-((5-(1-(2-hydroxy-2-methylpropyl)-4-methyl-1H-indazol-5-yl)-2,6-naphthyridin-3-yl)amino)-N-(pyrimidin-2-yl)benzenesulfonamide]",< 25 nM,> 250 nM,–,25 to 250 nM,–,> 250 nM,–,–,–
"Cc1c(-c2nccc3cnc(Nc4ccc(NS(=O)(=O)c5cccc(N6CCNCC6)c5)cc4)cc23)ccc2c1cnn2CC(C)(C)O [Example 752, N-(4-((5-(1-(2-hydroxy-2-methylpropyl)-4-methyl-1H-indazol-5-yl)-2,6-naphthyridin-3-yl)amino)phenyl)-3-(piperazin-1-yl)benzenesulfonamide]",< 25 nM,> 250 nM,–,–,–,> 250 nM,> 250 nM,–,–

# Further lines, results first:
IC50 (CDK2/CCNE1; [1]),IC50 (CDK1/CCNB1; [2]),IC50 (CDK4/CCND3; [3]),IC50 (CDK6/CCND1; [4]),"IC50 (CDK1/CCNB1; 25-250 nM, read-out: CDK1/CCNB IC50, 25-250 nM)",IC50 (CDK4/CCND3; [5]),IC50 (CDK6/CCND1; [6]),"IC50 (CDK2/CCNE1; >250 nM, read-out: CDK2/CCNE IC50, >250 nM)",IC50 (CDK2/CCNE1; [7]),Structure (SMILES)
< 25 nM,> 250 nM,25 to 250 nM,25 to 250 nM,–,–,–,–,–,"N=S(=O)(c1ccc(Nc2cc3c(C#Cc4cnc5c(c4)NC(=O)CO5)nccc3cn2)cc1)C1CCC1 (stereo not shown) [Example 686, 7-((7-((4-(cyclobutanesulfonimidoyl)phenyl)amino)-2,6-naphthyridin-1-yl)ethynyl)-1H-pyrido[2,3-b][1,4]oxazin-2(3H)-one]"
< 25 nM,–,25 to 250 nM,25 to 250 nM,25 to 250 nM,–,–,–,–,"CC1(C)C(=O)Nc2cc(C#Cc3nccc4cnc(Nc5ccc([S@@](=N)(=O)NC6CCC6)cc5)cc34)ccc21 [Example 687, (S)-N-cyclobutyl-4-((5-((3,3-dimethyl-2-oxoindolin-6-yl)ethynyl)-2,6-naphthyridin-3-yl)amino)benzenesulfonimidamide]"
< 25 nM,> 250 nM,–,–,–,> 250 nM,> 250 nM,–,–,"CNS(=O)(=O)c1ccc(Nc2cc3c(-c4ccc5c(cnn5CC(O)(C(F)(F)F)C(F)(F)F)c4C)nccc3cn2)cc1 [Example 696, N-methyl-4-((5-(4-methyl-1-(3,3,3-trifluoro-2-hydroxy-2-(trifluoromethyl)propyl)-1H-indazol-5-yl)-2,6-naphthyridin-3-yl)amino)benzenesulfonamide]"
< 25 nM,> 250 nM,25 to 250 nM,–,–,–,> 250 nM,–,–,"CS(=O)(=O)c1ccc(Nc2cc3c(C#CC4(O)CCCNC4)nccc3cn2)cc1 (stereo not shown) [Example 699, 3-((7-((4-(methylsulfonyl)phenyl)amino)-2,6-naphthyridin-1-yl)ethynyl)piperidin-3-ol]"
< 25 nM,> 250 nM,–,–,–,> 250 nM,> 250 nM,–,–,"CC[C@@H](C)NS(=O)(=O)c1ccc(Nc2cc3c(-c4ccc5c(cnn5CC(C)(C)O)c4C)nccc3cn2)cc1 [Example 721, (R)-N-(sec-butyl)-4-((5-(1-(2-hydroxy-2-methylpropyl)-4-methyl-1H-indazol-5-yl)-2,6-naphthyridin-3-yl)amino)benzenesulfonamide]"
–,> 250 nM,–,–,–,> 250 nM,> 250 nM,–,25 to 250 nM,"CN1CCN(c2cc(Nc3cc4c(C#Cc5ccc(=O)[nH]n5)nccc4cn3)cnc2O)CC1 [Example 723, 6-((7-((6-hydroxy-5-(4-methylpiperazin-1-yl)pyridin-3-yl)amino)-2,6-naphthyridin-1-yl)ethynyl)pyridazin-3(2H)-one]"
< 25 nM,> 250 nM,25 to 250 nM,25 to 250 nM,–,–,–,–,–,"Cc1c(-c2nccc3cnc(Nc4ccc([S@@](C)(=N)=O)cc4)cc23)ccc2c1cnn2CC(O)(C(F)(F)F)C(F)(F)F [Example 724, (S)-1,1,1,3,3,3-hexafluoro-2-((4-methyl-5-(7-((4-(S-methylsulfonimidoyl)phenyl)amino)-2,6-naphthyridin-1-yl)-1H-indazol-1-yl)methyl)propan-2-ol]"
< 25 nM,> 250 nM,25 to 250 nM,25 to 250 nM,–,–,–,–,–,"Cc1c(-c2nccc3cnc(Nc4ccc([S@](C)(=N)=O)cc4)cc23)ccc2c1cnn2CC(O)(C(F)(F)F)C(F)(F)F [Example 725, (R)-1,1,1,3,3,3-hexafluoro-2-((4-methyl-5-(7-((4-(S-methylsulfonimidoyl)phenyl)amino)-2,6-naphthyridin-1-yl)-1H-indazol-1-yl)methyl)propan-2-ol]"
